Test results taken from patent publication US7459268B2, “Method for screening agent acting on cell wall” (Daiichi Pharmaceutical Co., Ltd., priority 2001, dated 2008).

Experiments:
[1] = tested on: AY-2 strain (wall-type arming yeast); experiment: GFP releasing effect of available antifungal agents, wall-type arming yeast; type: cell-based, S. cerevisiae; settings: RPMIB medium protected for osmotic pressure
Method: (§1) The cultured yeast cells in the logarithmic growth phase (AY-2 strain or AY-12 strain) were collected, and various agents were allowed to act on the yeast cells. Fluorescence intensity of the culture supernatant was measured by using Cytofluor 2300 Fluorometer (Millipore, excitation=480 nm, emission=530 nm). The fluorescence intensity under treatment with each of various agents was shown in terms of a difference in fluorescence intensity compared with that of a control in which no agent was added.
(§2) In order to ascertain whether or not the aforementioned method can be utilized for a screening of agents with a targeting site other than Kre6p, the GFP releasing effects in the AY-2 strain (wall-type arming yeast) and the AY-12 strain (membrane-type arming yeast) were compared under actions of available antifungal agents. The AY-2 strain cells and the AY-12 strain cells each cultured in a test tube were suspended with a medium (RPMIB) protected for osmotic pressure, and each of the agents was allowed to act on the cells. After the culture, the fluorescence intensity of the supernatant was measured, and a difference from that of a control with no addition of the agent was calculated.

[2] = tested on: AY-12 strain (membrane-type arming yeast); experiment: GFP releasing effect of available antifungal agents, membrane-type arming yeast; type: cell-based, S. cerevisiae; settings: RPMIB medium protected for osmotic pressure
Method: as §1, §2

AY-14 strain [3] = experiment: GFP release by cell wall synthesis inhibitors; type: cell-based, Saccharomyces cerevisiae; settings: each agent alone
Source text: As agents confirmed to have a yeast cell wall synthesis inhibitory action, tunicamycin (TM, Funakoshi, Tokyo), aculeacin A (AC, Wako Pure Chemical Industries, Osaka) and staurosporine (SP, Boehringer Mannheim, Tokyo) were used. The AY-14 strain was used as a microorganism.
Thus, it is evident that inhibitors for the (1,3)-β-glucan synthesis pathway, N-type saccharide chain synthesis pathway, saccharide chain (glucan) synthesis regulatory pathway and the like can also be screened.

AY-14 strain [4] = experiment: Molecular weight of released GFP by Western blotting after agent treatment; type: cell-based, Saccharomyces cerevisiae; settings: agent alone
Method: Cells at the logarithmic growth phase were collected after inoculation to the liquid medium and culture at 30° C., and suspended in a fresh medium of the same type to prepare a cell suspension for inoculation. The cells were cultured at 30° C. Fluorescence intensity of the culture supernatant was measured (excitation=480 nm, emission=530 nm) by using ARVO sx (Wallac, Tokyo). The GFP releasing effect of the gene-disrupted strains was represented in terms of a difference with that of a non-gene-disrupted strain (AY-10u strain or AY12u strain). After the measurement of fluorescence intensity, the culture supernatants were concentrated by ultrafiltration. The concentrated supernatants were subjected to separation by SDS-PAGE and blotted on a PVDF membrane, and GFP was detected by using commercially available anti-GFP antibodies (rabbit IgG, Santa Cruz Biotechnology) to compare the molecular weights (Western blotting).
As agents confirmed to have a yeast cell wall synthesis inhibitory action, tunicamycin (TM, Funakoshi, Tokyo), aculeacin A (AC, Wako Pure Chemical Industries, Osaka) and staurosporine (SP, Boehringer Mannheim, Tokyo) were used. The AY-14 strain was used as a microorganism. […]

Compound	GFP releasing effect (fluorescence intensity of culture supernatant, difference from control with no agent) [1]	GFP releasing effect (fluorescence intensity of culture supernatant, difference from control with no agent) [2]	release of GFP (AY-14 strain [3])	molecular weight of released GFP compared with that in the absence of agent (AY-14 strain [4])
OC(Cn1cncn1)(Cn1cncn1)c1ccc(F)cc1F [Fluconazole]	Slight releasing effect	Slight releasing effect	–	–
C[C@@H]1[C@H](O)[C@@H](C)/C=C/C=C/C=C/C=C/C=C/C=C/C=C/[C@H](O[C@@H]2O[C@H](C)[C@@H](O)[C@H](N)[C@@H]2O)C[C@@H]2O[C@](O)(C[C@@H](O)C[C@@H](O)[C@H](O)CC[C@@H](O)C[C@@H](O)CC(=O)O[C@H]1C)C[C@H](O)[C@H]2C(=O)O [Amphotericin B]	Slight releasing effect	Slight releasing effect	–	–
CC[C@@H](C(=O)[C@@H](C)[C@@H](O)[C@H](C)[C@@H]1O[C@@H]([C@@H](CC)C(=O)O)CC[C@@H]1C)[C@H]1O[C@]2(C=C[C@@H](O)[C@]3(CC[C@@](C)([C@H]4CC[C@](O)(CC)[C@H](C)O4)O3)O2)[C@H](C)C[C@@H]1C [Salinomycin]	Slight releasing effect	Slight releasing effect	–	–
Tunicamycin	Marked GFP releasing effect	almost no releasing effect	release of GFP was observed	markedly lowered
CN[C@@H]1C[C@H]2O[C@@](C)([C@@H]1OC)n1c3ccccc3c3c4c(c5c6ccccc6n2c5c31)C(=O)NC4 [SP, staurosporine]	–	–	release of GFP was observed	–
Aculeacin A	Marked GFP releasing effect	almost no releasing effect	release of GFP was observed	–
